{"source": "paper PMC10590383", "about": "“Repurposing conformational changes in ANL superfamily enzymes to rapidly generate biosensors for organic and amino acids” (Nature Communications, 2023)", "key": {"GECFINDER-Phe3": {"biological_target": "T1, GECFINDER-Phe3 (Aneurinibacillus migulanus, UniProt P0C061)", "T1 construct": "gene grsA; GrsA-PheA-PCP; cpEGFP inserted in hinge B, linkers VF-QS", "T1 sequence (P0C061 1-617)": "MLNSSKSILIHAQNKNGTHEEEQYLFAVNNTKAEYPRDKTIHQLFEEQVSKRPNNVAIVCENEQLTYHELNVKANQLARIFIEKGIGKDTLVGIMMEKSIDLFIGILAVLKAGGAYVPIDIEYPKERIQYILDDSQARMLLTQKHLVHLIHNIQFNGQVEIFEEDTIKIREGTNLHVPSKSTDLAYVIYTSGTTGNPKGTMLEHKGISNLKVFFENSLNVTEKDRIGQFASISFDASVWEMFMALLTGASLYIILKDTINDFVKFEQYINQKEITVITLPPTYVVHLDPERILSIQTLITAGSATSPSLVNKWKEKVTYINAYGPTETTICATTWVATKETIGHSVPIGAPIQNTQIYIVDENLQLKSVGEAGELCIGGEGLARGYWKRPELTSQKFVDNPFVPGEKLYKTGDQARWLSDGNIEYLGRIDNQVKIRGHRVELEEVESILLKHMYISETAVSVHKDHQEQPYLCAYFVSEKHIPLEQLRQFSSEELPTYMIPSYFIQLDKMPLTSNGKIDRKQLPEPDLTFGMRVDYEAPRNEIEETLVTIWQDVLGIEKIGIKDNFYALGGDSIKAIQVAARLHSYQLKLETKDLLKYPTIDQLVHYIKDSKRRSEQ", "assay": "Fluorescence dose-response of purified cpEGFP sensors (0.75 uM) in 100 mM Tris-HCl pH 7.5, room temperature, 1 mM ATP, 2.5 mM MgCl2; excitation 400, 460 or 480 nm by sensor, emission 510 nm; logistic five-parameter fit.", "format": "biochemical", "conditions": "n = 3", "experimental": "(§1) Fig. 3 Dose–response curves and fluorescence spectrums of […]s. a, c, e, g, i, k Dose–response curve of purified […]s with increasing concentrations of ligand in 100 mM Tris-HCl buffer (pH=7.5). The normalized ΔF/F0 value increased after ligand binding. All data shown are mean ± S.D. (n = 3 biologically independent samples). b, d, f, h, j, l The fluorescence spectra of […]s changed as the ligand concentration increased. All data shown are mean ± S.D. (n = 3 biologically independent samples). Source data are provided as a Source data file.\n(§2) The study conducted dose–response curve, substrate specificity, and fluorescent spectrum analyses in 100-mM Tris buffer (pH = 7.5), while pH stability experiments were performed in 100-mM Tris buffer at three different pH values (6.5, 7.5, and 8.5) at room temperature. […] protein at a concentration of 0.75 μM, various small molecule concentrations, 1 mM ATP, and 2.5 mM MgCl2 were used in the experiments. Fluorescent signals were detected using a Microplate Reader (Synergy H4, Bio Tek) at an excitation/emission wavelength of 460 nm/510 nm or 480 nm/510 nm. The dose-response curve was determined immediately after the addition of the analyte. The total duration of the measurement was 15 min, with readings taken at one-minute intervals. The dose-response curve was plotted using the fluorescence values obtained after achieving stability in the fluorescence signal. The dose-response curves were fitted using the logistic model LOGISTIC5 available in Origin 2021, which could provide a more adequate fit to asymmetric dose-response data[62],[63]. Excitation spectra were scanned from 300 to 540 nm with a step size of 5 nm, and the emission wavelength was set to 560 nm. Emission spectra were scanned from 470 to 700 nm with a step size of 5 nm, and the excitation wavelength was set to 450 nm. The thermal stability of […] was analyzed using the UNcle multifunctional protein stability analysis system. Measurements were performed in 20 mM MOPS buffer with 2 mM DTT at a sample concentration of 1 mg/mL. Absolute fluorescence quantum yields were measured using an absolute photoluminescence quantum yield spectrometer (FS5, Edinburgh)."}, "GECFINDER-Phe2": {"biological_target": "T2, GECFINDER-Phe2 (Aneurinibacillus migulanus, UniProt P0C061)", "T2 construct": "gene grsA; GrsA-PheA-PCP; cpEGFP inserted in hinge B, linkers CV-LL", "assay": "Fluorescence dose-response of purified cpEGFP sensors (0.75 uM) in 100 mM Tris-HCl pH 7.5, room temperature, 1 mM ATP, 2.5 mM MgCl2; excitation 400, 460 or 480 nm by sensor, emission 510 nm; logistic five-parameter fit.", "format": "biochemical", "conditions": "n = 3", "experimental": "as §1, §2"}}, "data": [{"smiles": "N[C@@H](Cc1ccccc1)C(=O)O", "note": "[Phe, phenylalanine]", "values": [{"measurement": "EC50", "setting": "GECFINDER-Phe3", "value": "1.91 ± 0.08", "unit": "µM"}, {"measurement": "EC50", "setting": "GECFINDER-Phe2", "value": "1.47 ± 0.15", "unit": "µM"}]}]}
